According to patent US20240217990A1 (Gilead Sciences, Inc., priority 2021, published 2024):

What was measured:
TLR7 = molecular target: T1, TLR7 (Homo sapiens, UniProt Q9NYK1); assay: TLR7 human PBMC cell-based assay (antagonist, GS-986 stimulated cytokine release); settings: human PBMCs; TLR7 agonist GS-986 400 nM, 6 hours; cytokines (IL-6 and IFNα) in supernatant; read-out: TLR-7 EC50
T1 construct: Human peripheral blood mononuclear cells (PBMCs) consist of lymphocytes, monocytes and dendritic cells that express TLR7, TLR8 and TLR9; endogenous in cells; host or cells: cryopreserved human PBMCs from healthy donors
T1 sequence (Q9NYK1 27-1049): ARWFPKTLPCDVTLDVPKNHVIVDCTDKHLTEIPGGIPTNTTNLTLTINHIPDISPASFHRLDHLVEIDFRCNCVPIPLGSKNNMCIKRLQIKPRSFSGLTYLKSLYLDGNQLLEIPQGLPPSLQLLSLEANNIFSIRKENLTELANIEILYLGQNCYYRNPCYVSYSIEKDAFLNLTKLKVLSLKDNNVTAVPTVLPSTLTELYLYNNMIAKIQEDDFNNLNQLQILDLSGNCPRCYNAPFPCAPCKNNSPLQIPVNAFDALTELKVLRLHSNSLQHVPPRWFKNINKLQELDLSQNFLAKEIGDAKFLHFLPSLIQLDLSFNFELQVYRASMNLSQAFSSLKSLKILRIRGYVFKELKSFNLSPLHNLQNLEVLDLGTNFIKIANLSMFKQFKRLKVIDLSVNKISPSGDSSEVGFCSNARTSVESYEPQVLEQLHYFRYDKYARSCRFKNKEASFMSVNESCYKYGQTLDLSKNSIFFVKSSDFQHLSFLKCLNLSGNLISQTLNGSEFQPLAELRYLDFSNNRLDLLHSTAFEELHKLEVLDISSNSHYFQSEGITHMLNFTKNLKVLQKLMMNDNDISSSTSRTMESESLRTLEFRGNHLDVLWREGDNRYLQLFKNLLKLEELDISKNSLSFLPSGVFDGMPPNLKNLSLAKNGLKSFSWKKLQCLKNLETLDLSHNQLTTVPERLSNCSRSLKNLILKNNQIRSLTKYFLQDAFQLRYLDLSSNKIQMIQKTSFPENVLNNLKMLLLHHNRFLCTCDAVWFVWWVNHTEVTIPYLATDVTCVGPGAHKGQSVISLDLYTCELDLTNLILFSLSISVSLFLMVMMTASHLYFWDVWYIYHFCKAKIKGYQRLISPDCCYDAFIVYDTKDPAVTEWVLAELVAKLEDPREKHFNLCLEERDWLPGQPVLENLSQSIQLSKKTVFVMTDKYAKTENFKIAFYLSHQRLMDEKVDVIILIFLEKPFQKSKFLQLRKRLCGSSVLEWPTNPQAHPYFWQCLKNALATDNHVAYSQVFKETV
How it was run: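 EC50 derived by sigmoidal fitting of IL-6 and IFNα levels, quantified by electrochemiluminescence in supernatants of human PBMCs given 400 nM GS-986 for 6 h. Cells (100,000/well in RPMI-1640, 10% FBS) had received test antagonist 1 h beforehand, 10 doses in quadruplicate, at 37 °C.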

TLR8 = molecular target: T2, TLR8 (Homo sapiens, UniProt Q9NR97); assay: TLR8 human PBMC cell-based assay (antagonist, Compound A stimulated cytokine release); settings: human PBMCs; TLR8 agonist Compound A 800 nM, 6 hours; cytokines (TNFa and IL 12p40) in supernatant; read-out: TLR-8 EC50
T2 construct: Human peripheral blood mononuclear cells (PBMCs) consist of lymphocytes, monocytes and dendritic cells that express TLR7, TLR8 and TLR9; endogenous in cells; host or cells: cryopreserved human PBMCs from healthy donors
T2 sequence (Q9NR97 27-1041): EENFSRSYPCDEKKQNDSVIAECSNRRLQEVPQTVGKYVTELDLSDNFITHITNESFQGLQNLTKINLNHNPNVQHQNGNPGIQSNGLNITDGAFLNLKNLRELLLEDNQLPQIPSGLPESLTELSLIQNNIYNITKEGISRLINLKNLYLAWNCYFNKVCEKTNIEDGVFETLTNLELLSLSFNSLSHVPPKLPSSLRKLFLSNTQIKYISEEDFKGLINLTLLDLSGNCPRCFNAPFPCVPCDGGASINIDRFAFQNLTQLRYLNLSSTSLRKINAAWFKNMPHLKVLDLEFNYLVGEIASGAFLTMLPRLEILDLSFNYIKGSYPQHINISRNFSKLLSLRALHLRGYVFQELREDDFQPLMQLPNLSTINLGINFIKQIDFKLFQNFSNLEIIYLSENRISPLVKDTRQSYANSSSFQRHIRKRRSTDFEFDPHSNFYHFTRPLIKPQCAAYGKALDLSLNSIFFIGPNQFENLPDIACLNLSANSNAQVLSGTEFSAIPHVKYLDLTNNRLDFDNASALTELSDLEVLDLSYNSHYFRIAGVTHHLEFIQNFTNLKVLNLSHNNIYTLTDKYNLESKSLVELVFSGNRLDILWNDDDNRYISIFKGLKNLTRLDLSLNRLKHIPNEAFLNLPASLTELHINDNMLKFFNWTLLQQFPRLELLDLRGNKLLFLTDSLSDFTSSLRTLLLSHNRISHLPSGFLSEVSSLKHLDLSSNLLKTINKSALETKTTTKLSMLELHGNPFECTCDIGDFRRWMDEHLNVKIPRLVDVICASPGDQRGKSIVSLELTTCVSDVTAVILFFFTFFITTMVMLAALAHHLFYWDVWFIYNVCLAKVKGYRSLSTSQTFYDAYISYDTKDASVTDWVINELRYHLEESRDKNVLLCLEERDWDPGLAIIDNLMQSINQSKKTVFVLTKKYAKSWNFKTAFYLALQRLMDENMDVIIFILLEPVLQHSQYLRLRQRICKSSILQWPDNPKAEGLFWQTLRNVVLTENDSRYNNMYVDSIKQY
How it was run: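 Cryopreserved donor PBMCs (100,000/well, RPMI + 10% FBS) were preincubated 1 h with antagonist (10-point dose response, quadruplicate), then stimulated with Compound A (800 nM final) for 6 h at 37 °C. TNFa and IL-12p40 in supernatants were measured by electrochemiluminescence; sigmoidal fits gave EC50.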

SMILES	EC50 (TLR7) [nM]	EC50 (TLR8) [nM]
Cc1cc(-c2[nH]c3cc(C(=O)N4CCC[C@H](N)[C@@H]4C)sc3c2C(C)C)cn2ncnc12 [Example 87]	0.5	13
Cc1cc(-c2[nH]c3cc(C(=O)N4CCC5CNCCC54)sc3c2C(C)C)cn2ncnc12 (centres unmarked) [Example 88]	0.5	4.6
Cc1cc(-c2[nH]c3cc(C(=O)N4CCC5CCNCC54)sc3c2C(C)C)cn2ncnc12 (centres unmarked) [Example 89]	2.5	26.2
Cc1cc(-c2[nH]c3cc(C(=O)N4CCC5CCNC5C4)sc3c2C(C)C)cn2ncnc12 (centres unmarked) [Example 90]	1	9.9
Cc1cc(-c2[nH]c3cc(C(=O)N4C[C@H](N)[C@@H]5CC[C@H]4C5)sc3c2C(C)C)cn2ncnc12 [Example 91]	3	12.3
Cc1cc(-c2[nH]c3cc(C(=O)N(C)C4CCNCC4(C)C)sc3c2C(C)C)cn2ncnc12 (centres unmarked) [Example 92]	0.2	23.1
Cc1cc(-c2[nH]c3cc(C(=O)N4CCC[C@@H]5NCC[C@@H]54)sc3c2C(C)C)cn2ncnc12 [Example 93]	0.6	19.8
Cc1cc(-c2[nH]c3cc(C(=O)N(C)CCCN(C)C)sc3c2C(C)C)cn2ncnc12 [Example 94]	1	4.7
Cc1cc(-c2[nH]c3cc(C(=O)N(C)CCN4CCOCC4)sc3c2C(C)C)cn2ncnc12 [Example 95]	45.2	35
Cc1cc(-c2[nH]c3cc(C(=O)N4C[C@@H](N)CC[C@H]4C)sc3c2C(C)C)cn2ncnc12 [Example 96]	0.3	25.8
Cc1cc(-c2[nH]c3cc(C(=O)N4CCC[C@H]4CN4CCCC4)sc3c2C(C)C)cn2ncnc12 [Example 97]	12.9	32.6
Cc1cc(-c2[nH]c3cc(C(=O)N(CCN(C)C)C4CCCC4)sc3c2C(C)C)cn2ncnc12 [Example 98]	14.3	17.5
Cc1cc(-c2[nH]c3cc(C(=O)N(C)CCN4CCCC4)sc3c2C(C)C)cn2ncnc12 [Example 99]	4.1	11.6
Cc1cc(-c2[nH]c3cc(C(=O)N(C)CCN(C)C4CC4)sc3c2C(C)C)cn2ncnc12 [Example 100]	9.6	22.5
Cc1cc(-c2[nH]c3cc(C(=O)N4C[C@@H](N)CC[C@@H]4C)sc3c2C(C)C)cn2ncnc12 [Example 101]	2.2	78.8
Cc1cc(-c2[nH]c3cc(C(=O)N4CCC[C@H]4CN(C)C)sc3c2C(C)C)cn2ncnc12 [Example 103]	11.3	21.3
Cc1cc(-c2[nH]c3cc(C(=O)N4CCC[C@@H]4CN(C)C)sc3c2C(C)C)cn2ncnc12 [Example 104]	7.8	10.6
Cc1cc(-c2[nH]c3cc(C(=O)N4CC[C@H](C)[C@H](N)C4)sc3c2C(C)C)cn2ncnc12 [Example 105]	4.6	16.3
Cc1cc(-c2[nH]c3cc(C(=O)N4CCCCC4CN(C)C)sc3c2C(C)C)cn2ncnc12 (centres unmarked) [Example 107]	3.9	12.8
